Assay results: PubChem BioAssay (NCI)
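Step 1: Grow cells in 96-well plates. Step 2: Expose to compound for 48 hours at 5 concentrations. Step 3: Interpolate endpoints linearly; if unreached, use highest concentration. At the GI50, growth is halved. TGI is the concentration that stops growth completely.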 Where a SMILES comes first, the peptide text is derived from it. The star is where a group is joined. Palmitoyl = CCCCCCCCCCCCCCCC(=O)*

Experiments:
Test in all cases: inhibition of tumour cell growth, NCI panel, 48 h
[1] = test system: SK-OV-3 ovarian
[2] = test system: A549 NSCLC
[3] = test system: OVCAR-8 ovarian
[4] = test system: OVCAR-3 ovarian
[5] = test system: COLO 205 colon
[6] = test system: SNB-19 CNS
[7] = test system: MOLT-4 leukemia
[8] = test system: UACC-62 melanoma
[9] = test system: NCI-H226 lung
[10] = test system: HCT-116 colon

## Cn1c(-c2ccccc2)cc(-c2cccs2)c1-c1cccs1
[1]
  TGI: > 100 µM
[2]
  TGI: > 100 µM
[3]
  TGI: > 100 µM
[4]
  TGI: > 100 µM
[5]
  TGI: > 100 µM
[6]
  TGI: > 100 µM
[7]
  TGI: > 100 µM
[8]
  TGI: > 100 µM
[9]
  TGI: > 100 µM
[10]
  TGI: > 100 µM

## C/C(=N/N=C(\[O-])c1ccncc1)C(F)(F)F.C/C(=N\N=C(/[O-])c1ccncc1)C(F)(F)F.[Ni+2]
[1]
  GI50: 0.00156 µM
  TGI: 0.005 µM
[5]
  GI50: > 1 µM
  TGI: > 1 µM
[6]
  GI50: > 1 µM
  TGI: > 1 µM
[7]
  GI50: > 1 µM
  TGI: > 1 µM
[9]
  GI50: > 1 µM
  TGI: > 1 µM

## CC(N)Cc1ccc(Cl)c(Cl)c1 (stereo not given)
[1]
  TGI: > 100 µM
[2]
  TGI: > 100 µM
[3]
  TGI: > 100 µM
[4]
  TGI: > 100 µM
[5]
  TGI: 36.5 µM
[6]
  TGI: > 100 µM
[7]
  TGI: 71.2 µM
[8]
  TGI: 50.2 µM
[9]
  TGI: > 100 µM
[10]
  TGI: > 100 µM

## Nc1[nH]c(=O)nc2c1cnn2C1CCCCO1 (stereo not given)
[2]
  TGI: > 100 µM
[3]
  TGI: > 100 µM
[5]
  TGI: > 100 µM
[6]
  TGI: > 100 µM
[7]
  TGI: > 100 µM
[9]
  TGI: > 100 µM
[10]
  TGI: > 100 µM

## CON(C)c1nc(N(C)OC)nc(N(C)OC)n1
[1]
  TGI: > 10 µM
[2]
  TGI: > 10 µM
[3]
  TGI: > 10 µM
[4]
  TGI: > 10 µM
[5]
  TGI: > 10 µM
[6]
  TGI: > 10 µM
[7]
  TGI: > 10 µM
[8]
  TGI: > 10 µM
[9]
  TGI: > 10 µM
[10]
  TGI: > 10 µM

## Cc1cc(C)nc(NS(=O)(=O)c2ccc(NC(=O)c3cccc4c(Nc5ccc(S(=O)(=O)Nc6cc(C)on6)cc5)c5ccccc5nc34)cc2)n1
[1]
  TGI: 75.2 µM
[4]
  TGI: 38.9 µM
[6]
  TGI: 46.7 µM
[7]
  TGI: 86.4 µM
[8]
  TGI: 40.9 µM
[10]
  TGI: 84 µM

## CCN1CCC(O)(/C=C/c2ccccc2C)C(C(=O)/C=C/c2ccccc2C)C1 (stereo not given)
[1]
  TGI: 21 µM
[2]
  TGI: 12.8 µM
[3]
  TGI: 7.85 µM
[4]
  TGI: 4.77 µM
[5]
  TGI: 3.13 µM
[7]
  TGI: 6.12 µM
[8]
  TGI: 10.7 µM
[10]
  TGI: 3.38 µM

## CCCCCCCCCCCCCCCC(=O)N1CCCC1C(=O)NCC(=O)NC(Cc1ccccc1)C(=O)NC(C)C(=O)NC(CO)C(=O)NC(Cc1ccc(O)cc1)C(=O)NC(CCCCN)C(=O)NC(CC(C)C)C(=O)NC(CCCN=C(N)N)C(=O)N1CCCC1C(=O)NCC(N)=O (stereo not given) (Palmitoyl-PGFASYKLRPG-NH2; configuration not given here)
[1]
  GI50: 12.8 µM
  TGI: 28.7 µM
[2]
  GI50: 21.3 µM
  TGI: 40.8 µM
[3]
  GI50: 24 µM
  TGI: 51.9 µM
[4]
  GI50: 24.2 µM
  TGI: 56.6 µM
[5]
  GI50: 10.9 µM
  TGI: 22.8 µM
[6]
  GI50: 18.4 µM
  TGI: 39.7 µM
[7]
  GI50: 17.6 µM
  TGI: 31.4 µM
[9]
  GI50: 15.9 µM
  TGI: 35.6 µM
[10]
  GI50: 12.1 µM
  TGI: 24.9 µM

## CC1=C(O)C2=C(C(=O)C1=O)[C@@H](C)CC[C@@H]2[C@@H](C)C/C=C/C(C)(C)O
[1]
  TGI: > 100 µM
[2]
  TGI: > 100 µM
[3]
  TGI: > 100 µM
[4]
  TGI: 79.2 µM
[5]
  TGI: > 100 µM
[6]
  TGI: > 100 µM
[7]
  TGI: 93.2 µM
[8]
  TGI: > 100 µM
[9]
  TGI: > 100 µM
[10]
  TGI: > 100 µM

## C=C(C)C1Cc2c(c3ccccc3n(C)c2=O)O1 (stereo not given)
[1]
  TGI: > 100 µM
[3]
  TGI: > 100 µM
[4]
  TGI: > 100 µM
[5]
  TGI: > 100 µM
[6]
  TGI: > 100 µM
[7]
  TGI: > 100 µM
[8]
  TGI: > 100 µM
[9]
  TGI: > 100 µM

## COC(=O)C1=C(OC(=O)/C(=C/c2ccc(Cl)cc2)c2ccc(Cl)cc2)C(C(=O)OC)[C@]2(O)[C@@H](C(=O)OC)[C@H]1C[C@@H](c1ccccc1)[C@@H]2C(=O)OC (stereo not given in full)
[1]
  TGI: > 100 µM
[2]
  TGI: > 100 µM
[3]
  TGI: > 100 µM
[4]
  TGI: > 100 µM
[5]
  TGI: > 100 µM
[6]
  TGI: > 100 µM
[7]
  TGI: > 100 µM
[8]
  TGI: > 100 µM
[9]
  TGI: > 100 µM
[10]
  TGI: > 100 µM

## c1ccc(-c2nc(N3CCNCC3)c3oc(-c4ccccc4)nc3n2)cc1
[1]
  GI50: 1.88 µM
  TGI: 3.8 µM
[4]
  GI50: 1.74 µM
  TGI: 3.21 µM
[5]
  GI50: 2.14 µM
  TGI: 4.88 µM
[6]
  GI50: 1.72 µM
  TGI: 3.15 µM
[8]
  GI50: 1.72 µM
  TGI: 3.11 µM
[9]
  GI50: 2.11 µM
  TGI: 5.05 µM

## Nc1nc(Nc2ccccc2)c2[nH]cnc2n1
[1]
  TGI: > 100 µM
[2]
  TGI: > 100 µM
[3]
  TGI: > 100 µM
[4]
  TGI: > 100 µM
[5]
  TGI: > 100 µM
[6]
  TGI: > 100 µM
[7]
  TGI: > 100 µM
[8]
  TGI: > 100 µM
[9]
  TGI: > 100 µM
[10]
  TGI: > 100 µM

## COc1cc(C(C)O)c[n+](Cc2ccccc2)c1 (stereo not given)
[1]
  TGI: > 100 µM
[2]
  TGI: > 100 µM
[3]
  TGI: > 31.6 µM
[4]
  TGI: > 100 µM
[5]
  TGI: > 100 µM
[6]
  TGI: > 100 µM
[7]
  TGI: > 100 µM
[8]
  TGI: > 100 µM
[9]
  TGI: > 100 µM
[10]
  TGI: > 100 µM

## COC(=O)c1c(C)n([O-])c2cc(Cl)c(Cl)cc2[n+]1=O
[1]
  TGI: 40 µM
[2]
  TGI: 28.6 µM
[3]
  TGI: 59.3 µM
[4]
  TGI: 52.4 µM
[5]
  TGI: 25.8 µM
[6]
  TGI: > 100 µM
[7]
  TGI: 84.5 µM
[8]
  TGI: 40.3 µM
[10]
  TGI: > 100 µM

## OCCN(CCO)c1ncnc2nc[nH]c12
[1]
  TGI: > 100 µM
[2]
  TGI: > 100 µM
[3]
  TGI: > 100 µM
[4]
  TGI: > 100 µM
[5]
  TGI: > 100 µM
[6]
  TGI: > 100 µM
[7]
  TGI: > 100 µM
[8]
  TGI: > 100 µM
[9]
  TGI: > 100 µM
[10]
  TGI: > 100 µM

## Cc1c(-c2ccccc2)[nH]c2cc(Cl)ccc2c1=O
[1]
  TGI: > 100 µM
[2]
  TGI: > 100 µM
[4]
  TGI: > 100 µM
[6]
  TGI: > 100 µM
[7]
  TGI: > 100 µM
[8]
  TGI: > 100 µM
[9]
  TGI: 68 µM
[10]
  TGI: > 100 µM

## CC(C)C(C(=O)O)N1C(=O)c2ccccc2C1=O (stereo not given)
[1]
  TGI: > 100 µM
[2]
  TGI: > 100 µM
[3]
  TGI: > 100 µM
[4]
  TGI: > 100 µM
[5]
  TGI: > 100 µM
[6]
  TGI: > 100 µM
[7]
  TGI: > 100 µM
[8]
  TGI: > 100 µM
[9]
  TGI: > 100 µM
[10]
  TGI: > 100 µM

## c1cnc2c(c1)ccc1cccnc12
[1]
  TGI: > 100 µM
[2]
  TGI: > 100 µM
[3]
  TGI: > 100 µM
[4]
  TGI: > 86.6 µM
[5]
  TGI: > 83.3 µM
[6]
  TGI: > 100 µM
[7]
  TGI: 8.37 µM
[8]
  TGI: > 100 µM
[9]
  TGI: > 23.5 µM
[10]
  TGI: > 100 µM

## CCOC(=O)c1c(C)n(-c2ccc(Cl)cc2)c2c1cc(O)c1[nH]c3c(c12)CCCC3
[1]
  TGI: > 100 µM
[2]
  TGI: > 100 µM
[3]
  TGI: > 100 µM
[4]
  TGI: > 100 µM
[5]
  TGI: > 100 µM
[6]
  TGI: > 100 µM
[7]
  TGI: > 100 µM
[8]
  TGI: > 100 µM
[9]
  TGI: > 100 µM
[10]
  TGI: > 100 µM

## O=C(/C=C/c1ccc(Oc2cc(C(=O)/C=C/c3ccc(O)cc3)c(O)cc2O)cc1)c1ccc(O)cc1O
[1]
  TGI: 8.88 µM
[2]
  TGI: 99.5 µM
[3]
  TGI: 6.09 µM
[4]
  TGI: 11.9 µM
[5]
  TGI: 6.08 µM
[6]
  TGI: 30.9 µM
[7]
  TGI: > 100 µM
[8]
  TGI: 13 µM
[10]
  TGI: 4.57 µM

## CN1C(c2ccccc2)CC(=O)C(N)C1c1ccccc1 (stereo not given)
[1]
  TGI: > 100 µM
[2]
  TGI: > 100 µM
[3]
  TGI: > 81.2 µM
[4]
  TGI: > 86.3 µM
[5]
  TGI: 32.5 µM
[6]
  TGI: > 100 µM
[7]
  TGI: > 58.8 µM
[8]
  TGI: 81.2 µM
[9]
  TGI: > 100 µM
[10]
  TGI: 34.2 µM
